Measurements reported in patent publication US11440907B1 (Merck Patent GmbH, priority 2018, dated 2022).
pEC50, pIC50: −log10 of the molar value.

Legend:
[1] = tested on: β-catenin-TCF-mediated reporter transcription activity in Colo 205 cells; experiment: Colo 205 reporter assay (TCF/LEF promoter-driven firefly luciferase); format: cell-based; settings: Homo sapiens; Colo 205 TCF/LEF luciferase reporter, 5 hours after compound addition, 384 well; read-out: Colo205 IC50
[2] = tested on: XBP1(u)-luciferase splicing reporter in HepG2 hepatoma cells; experiment: HepG2 XBP1 reporter assay (XBP1(u)-Luc); format: cell-based; settings: Homo sapiens, 6 hours after compound addition; for pEC50: Table 3, read-out: XBP1-luc HepG2 1 EC50; for pIC50: Table 4
[3] = tested on: intracellular calcium flux in Colo-205 cells; experiment: Calcium flux assay (FLIPR Calcium 5 Assay Kit, FLIPR3); format: cell-based; settings: Homo sapiens, 0.6 h, calcium flux measured over 36 minutes, read-out: Colo 205 Calcium Flux assay 384w Boston Ca assay FLIPR3 Colo EC50
Procedure: Compounds described herein induced ER stress by causing intracellular calcium flux. Calcium flux was measured in Colo-205 cells using the FLIPR® Calcium 5 Assay Kit according to manufacturer's protocol (Molecular Devices, Cat. #R8186) on a FLIPR3 system (Molecular Devices). Calcium flux is measured over 36 minutes. The Colo-205 calcium flux assay data are summarized in Table 3: A<0.6 μM; 0.6 μM≤B<2.0 μM; 2.0 μM≤C<10.0 μM; D≥10.0 μM.

[4] = tested on: NCI-H929 (Multiple myeloma cells); experiment: Cell viability (ATPLite) in NCI-H929; format: cell-based; settings: Homo sapiens, 96 hours
Summary of the method: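 Cells were seeded at 500/well and, after 24 h, treated with compound at 100 nM or 2 uM for 0 or 96 hours. Viability was measured by ATPLite cellular ATP read-out.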

[5] = tested on: DU4475 (breast cancer cells); experiment: Cell viability (ATPLite) in DU4475; format: cell-based; settings: Homo sapiens, DU-4475, 96 hours
Procedure: Cells were removed from liquid nitrogen storage, thawed and expanded in appropriate growth media. Once expanded, cells were seeded in 384-well tissue culture treated plates at 500 cells per well. After 24 hours, cells were treated for either 0 hours or treated for 96 hours with a testing compound (at the concentrations of 100 nM and 2 uM). At the end of either 0 hours or 96 hours, cell status was analyzed using ATPLite (Perkin Elmer) to assess the biological response of cells to the testing compound.

Row | Compound | melting point [°C] | pIC50 [1] | further results
1 | Cc1cc(N2CCCN(S(C)(=O)=O)CC2c2ccccc2Cl)nc(N)n1 (racemic) [I-28, (+/−)-4-(2-(2-chlorophenyl)-4-(methylsulfonyl)-1,4-diazepan-1-yl)-6-methylpyrimidin-2-amine] | 278 to 280 |  | 
2 | COc1cc(C2CCCCCN2c2cc(C)nc(N)n2)c(OC)cn1 (racemic) [I-116, (+/−)-4-[2-(2,5-dimethoxy-4-pyridyl)azepan-1-yl]-6-methyl-pyrimidin-2-amine] | 107 to 109 |  | 
3 | COc1ccc(Cl)c(C2CCCCCN2c2cc(C)nc(N)n2)c1 (racemic) [I-117, (+/−)-4-(2-(2-chloro-5-methoxyphenyl)azepan-1-yl)-6-methylpyrimidin-2-amine] | 88 to 90 | 6.00 to 6.52 | 
4 | COc1ccc(Cl)c(C2COCCCN2c2cc(C)nc(N)n2)c1 (racemic) [I-118, (+/−)-4-(3-(2-chloro-5-methoxyphenyl)-1,4-oxazepan-4-yl)-6-methylpyrimidin-2-amine] | 220 | 6.00 to 6.52 | 
5 | Cc1cc(N2CCCOCC2c2cc(N3CCCC3=O)ccc2Cl)nc(N)n1 (racemic) [I-119, 1-(3-(4-(2-amino-6-methylpyrimidin-4-yl)-1,4-oxazepan-3-yl)-4-chlorophenyl)pyrrolidin-2-one] | 138 to 140 | 6.00 to 6.52 | 
6 | Cc1cc(N2CCCOCC2c2cc(C(O)C(F)(F)F)ccc2Cl)nc(N)n1 (racemic) [I-134, (+/−)-1-(3-(4-(2-amino-6-methylpyrimidin-4-yl)-1,4-oxazepan-3-yl)-4-chlorophenyl)-2,2,2-trifluoroethan-1-ol] | 110 | 6.00 to 6.52 | 
7 | Cc1cc(N2CCCOCC2c2cc(NC(=O)CN(C)C)ccc2Cl)nc(N)n1 (racemic) [I-168, (+/−)-N-[3-[4-(2-amino-6-methyl-pyrimidin-4-yl)-1,4-oxazepan-3-yl]-4-chloro-phenyl]-2-(dimethylamino)acetamide] | 95 to 97 | 6.00 to 6.52 | 
8 | CCNc1cc(C2COCCCN2c2cc(C)nc(N)n2)c(Cl)cc1F (racemic) [I-272, (+/−)-4-[3-[2-chloro-5-(ethylamino)-4-fluoro-phenyl]-1,4-oxazepan-4-yl]-6-methyl-pyrimidin-2-amine] | 180 | 6.00 to 6.52 | pEC50 [2]: 5.70 to 6.22
9 | Cc1cc(N2CCCOCC2c2ccc(NC(=O)C(F)F)cc2Cl)nc(N)n1 (racemic) [I-278, (+/−)-N-(4-(4-(2-amino-6-methylpyrimidin-4-yl)-1,4-oxazepan-3-yl)-3-chlorophenyl)-2,2-difluoroacetamide] | 188 to 190 | > 6.52 | pEC50 [2]: > 6.22
10 | Cc1cc(N2CCCOC[C@H]2c2ccccc2Cl)nc(N)n1 (single isomer, unassigned) [I-30] | 156 to 160 |  | 
11 | Cc1cc(N2CCCOC[C@H]2c2ccc(C#N)cc2Cl)nc(N)n1 (single isomer, unassigned) [I-96] | 220 |  | 
12 | Cc1cc(N2CCCOC[C@@H]2c2cc(S(C)(=O)=O)ccc2Cl)nc(N)n1 (single isomer, unassigned) [I-103] | 120 |  | 
13 | Cc1cc(N2CCCOC[C@@H]2c2cc(NS(C)(=O)=O)ccc2Cl)nc(N)n1 (single isomer, unassigned) [I-161] | 160 | > 6.52 | pEC50 [2]: > 6.22
14 | Cc1cc(N2CCCOC[C@@H]2c2ccc(Br)cc2Cl)nc(N)n1 (single isomer, unassigned) [I-201] | 100 to 102 | 6.00 to 6.52 | pEC50 [2]: > 6.22; pEC50 [3]: > 6.22
15 | Cc1cc(N2CCCOCC2c2ccc(OC[C@@H](O)CO)cc2Cl)nc(N)n1 (stereo partly drawn) [C-42, (S)-3-{4-[4-(2-Amino-6-methyl-pyrimidin-4-yl)-[1,4]oxazepan-3-yl]-3-chloro-phenoxy}-propane-1,2-diol] |  |  | pIC50 [2]: 5.70 to 6.22; pIC50 [4]: > 6.00; pIC50 [5]: > 6.00
16 | Cc1cc(N2CCCOC[C@@H]2c2ccc(N3CCC(C)(O)CC3)cc2Cl)nc(N)n1 [C-151] |  |  | pIC50 [2]: > 6.22; pIC50 [4]: > 6.00; pIC50 [5]: > 6.00
17 | Cc1cc(N2CCCOC[C@@H]2c2ccc(NC3COC3)cc2Cl)nc(N)n1 [C-152] |  |  | pIC50 [2]: > 6.22; pIC50 [4]: > 6.00; pIC50 [5]: > 6.00
